Laboratory results taken from patent US20240327356A1, “PYRIMIDINE BASED RAS MODULATORS AND USES THEREOF” (QUANTA THERAPEUTICS, INC., priority 2021, published 2024).

Assays:
[1] = target: KRAS^G12D-FMe.RAF1^RBDCRD complex (Homo sapiens, UniProt P01116, G12D); test: SHG assay: binding to bilayer-tethered KRAS G12D/RAF1 complex; conditions: GppNHp-loaded complex on PS bilayer; compound 0.027-40 μM, monitored over 60 min
Description: Compounds suspected to carry intrinsic SHG activity were tested in the presence of an unlabeled KRAS^G12D-FMe.RAF1^RBDCRD complex to monitor binding. PS bilayer was prepared from PS-enriched small unilamellar vesicles (SUVs) purchased from Biodesy, Inc. The concentrated SUVs were diluted in TBS buffer containing 5 mM CaCl2 and incubated on a glass-bottom 384-well Biodesy Delta™ assay plate to allow bilayer formation. Equimolar amounts of GppNHp-loaded KRAS^G12D-FMe and RAF1^RBDCRD were mixed and incubated together on PS bilayer overnight at 4° C. The following day, untethered protein was removed by washing with assay buffer (20 mM Hepes, pH 7.4, […], 1 mM TCEP, 5 μM GppNHp). The SHG signal produced by bilayer-tethered complex was ready using the Biodesy Delta™ platform where each well was pulsed with an 800 nm laser and the resulting second harmonic signal intensity at 400 nm was collected. Compounds were diluted into the same assay buffer and applied to the complex at a final concentration range spanning 0.027 μM-40 μM and the SHG intensity of each well was monitored at 5 minute intervals over a 60 minute time period.

[2] = system: Phospho-ERK (Thr202/Tyr204) in MiaPaCa-2 cells; test: pERK inhibition in MiaPaca-2 cell line (HTRF); assay type: cell-based; conditions: Homo sapiens, MIA PaCa-2, 1 hour incubation with compound
Description: MiaPaCa-2 cells (ATCC CRL-1420) were cultured in high glucose DMEM (Gibco 11965092) containing 10% fetal bovine serum (Gibco 1993708) and 1× Penicillin/Streptomycin, at 37° C. in a humid atmosphere of 5% CO2 in the air. Cells were plated in tissue-culture treated 96-well plates at a density of 10,000 cells/well and allowed to attach for 16 hours. The medium was then removed, and diluted compounds were added in a final concentration of 0.5% DMSO. After 1 hour of incubation, cells were lysed by the lysis buffer supplied with the Phospho-ERK (Thr202/Tyr204) cellular HTRF kit (Cisbio 64ERKPEH) and transferred to a 384-well low-volume white plate (PerkinElmer 6008280). The cell lysates were treated with the detection reagents supplied with the HTRF kit for 4 hours at ambient temperature in darkness. Two fluorescence intensities at the wavelengths (665 and 620 nm) were measured by the Envision plate reader (Perkin Elmer), and the data were processed and fitted to a 4-parameter logistic model for IC50 calculation (GraphPad Prism 9).

Row | Structure (SMILES) | EC50 [1] | IC50 [2]
1 | NCC1CCN(c2nc(-c3ccc(C(F)(F)F)cc3F)ncc2CNC(=O)C2(CN)CC2)C1 (stereo not shown) [Compound 25] | 1 to 10 µM | 10 to 50 µM
2 | N#CC1(C(=O)NCc2cnc(-c3ccc(C(F)(F)F)cc3F)nc2N2CCC(CN)C2)CC1 (stereo not shown) [Compound 28] | 10 to 50 µM | 1 to 10 µM
3 | N#CC1(C(=O)N2CC=C(c3cnc(-c4ccc(Cl)c(C(F)(F)F)c4)nc3N3CCC(CN)C3)C2)CC1 (stereo not shown) [Compound 29] | 1 to 10 µM | 1 to 10 µM
4 | N#Cc1cc(-c2ncc(C3=CCN(C(=O)C4(C#N)CC4)C3)c(N3CCC(CN)C3)n2)ccc1Cl (stereo not shown) [Compound 30] | 10 to 50 µM | 1 to 10 µM
5 | NC[C@@H]1CCCN1c1nc(-c2ccc(Cl)c(C(F)(F)F)c2)ncc1C1=CCNC1 [Compound 31] | < 0.1 µM | 1 to 10 µM
6 | Cc1ccc(-c2ncc(C3=CCNC3)c(N3CCC(CN)C3)n2)cc1C(F)(F)F (stereo not shown) [Compound 32] | 0.1 to 1 µM | 1 to 10 µM
7 | NC[C@H]1CCCN1c1nc(-c2ccc(Cl)c(C(F)(F)F)c2)ncc1C1=CCNC1 [Compound 33] | 1 to 10 µM | 1 to 10 µM
8 | NCCOc1nc(-c2ccc(Cl)c(C(F)(F)F)c2)ncc1C1=CCNC1 [Compound 34, 2-[2-[4-chloro-3-(trifluoromethyl)phenyl]-5-(2,5-dihydro-1H-pyrrol-3-yl)pyrimidin-4-yl]oxyethanamine] | 0.1 to 1 µM | 1 to 10 µM
9 | N#Cc1cc(-c2ncc(CNC(=O)C3(F)CC3)c(N3CCC(CN)C3)n2)ccc1Cl (stereo not shown) [Compound 35] | 10 to 50 µM | 1 to 10 µM
10 | N#CC1(C(=O)N2CC=C(c3cnc(-c4ccc(Cl)c(C(F)(F)F)c4)nc3OCCN)C2)CC1 [Compound 36] | 1 to 10 µM | 1 to 10 µM
11 | N#CC1(C(=O)NCc2cnc(-c3ccc(Cl)c(C(F)(F)F)c3)nc2N2C[C@@H](N)[C@H](O)C2)CC1 [Compound 37] | 10 to 50 µM | 1 to 10 µM
12 | N#CC1(C(=O)NCc2cnc(-c3ccc(Cl)c(C(F)(F)F)c3)nc2OC2CCNC2)CC1 (stereo not shown) [Compound 38] | 10 to 50 µM | 1 to 10 µM
13 | N#CC1(C(=O)NCc2cnc(-c3ccc(Cl)c(C(F)(F)F)c3)nc2OC2CNC2)CC1 [Compound 39] | 1 to 10 µM | 1 to 10 µM
14 | N[C@@H]1CN(c2nc(-c3ccc(Cl)c(C(F)(F)F)c3)ncc2C2=CCNC2)C[C@H]1O [Compound 40] | 0.1 to 1 µM | 1 to 10 µM
15 | N[C@@H]1CN(c2nc(-c3ccc(Cl)cc3NC(=O)C3CC3)ncc2C2=CCNC2)C[C@H]1O [Compound 43] | 10 to 50 µM | 10 to 50 µM
16 | N[C@@H]1CN(c2nc(-c3ccc(Cl)cc3NC(=O)C3(F)CC3)ncc2C2=CCNC2)C[C@H]1O [Compound 44] | 1 to 10 µM | 1 to 10 µM
17 | N#Cc1cc(-c2ncc(CNc3ccccc3)c(N3CCC(CN)C3)n2)ccc1C(F)(F)F (stereo not shown) [Compound 45, 5-[4-[3-(aminomethyl)pyrrolidin-1-yl]-5-(anilinomethyl)pyrimidin-2-yl]-2-(trifluoromethyl)benzonitrile] | 1 to 10 µM | 1 to 10 µM
18 | N#CC1(C(=O)NCc2cnc(-c3ccc(Cl)c(C(F)(F)F)c3)nc2OCCN)CC1 [Compound 46] | 1 to 10 µM | 1 to 10 µM
19 | N#CC1(C(=O)NCc2cnc(-c3ccc(Cl)c(C(F)(F)F)c3)nc2N2CCC(F)(CN)C2)CC1 (stereo not shown) [Compound 47] | 1 to 10 µM | 1 to 10 µM
20 | N#CC1(C(=O)NCc2cnc(-c3ccc(Cl)c(C(F)(F)F)c3)nc2N2CCC(N)CC2)CC1 [Compound 48] | 1 to 10 µM | 1 to 10 µM
21 | NCC1CCN(c2nc(-c3ccc(Cl)c(C(F)(F)F)c3)ncc2CNCCO)C1 (stereo not shown) [Compound 49, 2-[[4-[3-(aminomethyl)pyrrolidin-1-yl]-2-[4-chloro-3-(trifluoromethyl)phenyl]pyrimidin-5-yl]methylamino]ethanol] | 1 to 10 µM | 1 to 10 µM
22 | N#CC1(C(=O)NCc2cnc(-c3ccc(Cl)c(C(F)(F)F)c3)nc2OC2CC(N)C2)CC1 (stereo not shown) [Compound 50] | 1 to 10 µM | 1 to 10 µM
23 | N#CC1(C(=O)NCc2cnc(-c3ccc(Cl)c(C(F)(F)F)c3)nc2N2CCOC(CN)C2)CC1 (stereo not shown) [Compound 51] | 1 to 10 µM | 1 to 10 µM
24 | N#CC1(C(=O)NCc2cnc(-c3ccc(Cl)c(C(F)(F)F)c3)nc2N2CCNCC2)CC1 [Compound 54] | 1 to 10 µM | 1 to 10 µM
25 | N#CC1(C(=O)NCc2cnc(-c3ccc(Cl)c(C(F)(F)F)c3)nc2N2CCC[C@H]2CN)CC1 [Compound 55] | 10 to 50 µM | 1 to 10 µM

Row | Structure (SMILES) | EC50 [1] | IC50 [2]
26 | NCC1CCN(c2nc(-c3ccc(Cl)c(C(F)(F)F)c3)ncc2[N+](=O)[O-])C1 (stereo not shown) [Compound 56] | 10 to 50 µM | 10 to 50 µM
27 | N#CC1(C(=O)NCc2cnc(-c3ccc(Cl)c(C(F)(F)F)c3)nc2C2=CCC(N)CC2)CC1 (stereo not shown) [Compound 58, N-[[4-(4-aminocyclohexen-1-yl)-2-[4-chloro-3-(trifluoromethyl)phenyl]pyrimidin-5-yl]methyl]-1-cyano-cyclopropanecarboxamide] | 1 to 10 µM | 1 to 10 µM
28 | COC(=O)NCc1cnc(-c2ccc(C)c(Cl)c2)nc1N1CCC(CN)C1 (stereo not shown) [Compound 60] | 1 to 10 µM | 1 to 10 µM
29 | N[C@H]1CN(c2nc(-c3ccc(Cl)c(C(F)(F)F)c3)ncc2C2=CCNC2)C[C@@H]1O [Compound 61] | 1 to 10 µM | 1 to 10 µM
30 | Cc1ccc(-c2ncc(CNC(=O)C3(C#N)CC3)c(N3CCC(F)(CN)C3)n2)cc1Cl (stereo not shown) [Compound 63] | 1 to 10 µM | 0.1 to 1 µM
31 | Cc1ccc(-c2ncc(CNC(=O)C3(C#N)CC3)c(N3CC[C@H](N)C3)n2)cc1Cl [Compound 65] | 1 to 10 µM | 0.1 to 1 µM
32 | N#CC1(C(=O)NCc2cnc(-c3ccc(Cl)c(C(F)(F)F)c3)nc2N2CCC[C@@H]2CN)CC1 [Compound 66] | 1 to 10 µM | 1 to 10 µM
33 | Cc1ccc(-c2ncc(CNC(=O)C3(C#N)CC3)c(N3CCC[C@H]3CN)n2)cc1Cl [Compound 68] | 10 to 50 µM | 1 to 10 µM
34 | CN1CCN(c2nc(-c3ccc(Cl)c(C(F)(F)F)c3)ncc2CNC(=O)C2(C#N)CC2)CC1 [Compound 71] | 1 to 10 µM | 1 to 10 µM
35 | N#CC1(C(=O)NCc2cnc(-c3ccc(Cl)c(C(F)(F)F)c3)nc2OCCCN)CC1 [Compound 74] | 1 to 10 µM | 1 to 10 µM
36 | N#CC1(C(=O)NCc2cnc(-c3ccc(C(F)(F)F)c(Cl)c3)nc2N2CCC(CN)C2)CC1 (stereo not shown) [Compound 75] | 1 to 10 µM | 1 to 10 µM
37 | C=C(F)C(=O)NCc1cnc(-c2ccc(C)c(Cl)c2)nc1N1CCC(CN)C1 (stereo not shown) [Compound 76] | 1 to 10 µM | 1 to 10 µM
38 | Cc1ccc(-c2ncc(CNC(=O)C3(C#N)CC3)c(C3=CCC(N)CC3)n2)cc1Cl (stereo not shown) [Compound 77] | 1 to 10 µM | 1 to 10 µM
39 | Cc1ccc(-c2ncc(CNC(=O)C3(C)COC3)c(N3CCC(CN)C3)n2)cc1Cl (stereo not shown) [Compound 80] | 10 to 50 µM | 1 to 10 µM
40 | Cc1ccc(-c2ncc(CNC(=O)C3(N)CC3)c(N3CCC(CN)C3)n2)cc1Cl (stereo not shown) [Compound 81] | 10 to 50 µM | 1 to 10 µM
41 | Cc1ccc(-c2ncc(CNS(=O)(=O)C3CC3)c(N3CCC(CN)C3)n2)cc1Cl (stereo not shown) [Compound 82] | 1 to 10 µM | 1 to 10 µM
42 | C=C(C)C(=O)NCc1cnc(-c2ccc(C)c(Cl)c2)nc1N1CCC(CN)C1 (stereo not shown) [Compound 88] | 1 to 10 µM | 1 to 10 µM
43 | Cc1ccc(-c2ncc(CNC(=O)C3(F)CC3)c(OC3CCN(C)C3)n2)cc1Cl (stereo not shown) [Compound 89] | 10 to 50 µM | 1 to 10 µM
44 | Cc1ccc(-c2ncc(CNC(=O)C3(F)CC3)c(N3CCC(N)CC3)n2)cc1Cl [Compound 92] | 1 to 10 µM | 1 to 10 µM
45 | Cc1ccc(-c2ncc(CNC(=O)C3(F)CC3)c(N3CC[C@H](CN)C3)n2)cc1Cl [Compound 93] | 1 to 10 µM | 1 to 10 µM
46 | Cc1ccc(-c2ncc(CNS(=O)(=O)c3ccccc3)c(N3CCC(CN)C3)n2)cc1Cl (stereo not shown) [Compound 94] | 1 to 10 µM | 1 to 10 µM
47 | Cc1ccc(-c2ncc(CNC(=O)C3(O)CC3)c(N3CCC(CN)C3)n2)cc1Cl (stereo not shown) [Compound 96] | 1 to 10 µM | 1 to 10 µM
48 | Cc1ccc(-c2ncc(CN(C)C(=O)C3(F)CC3)c(N3CCNCC3)n2)cc1Cl [Compound 98] | 1 to 10 µM | 1 to 10 µM
49 | Cc1ccc(-c2ncc(CNC(=O)C3(F)CC3)c(N3CC(CN)C3)n2)cc1Cl [Compound 101] | 10 to 50 µM | 1 to 10 µM
50 | Cc1ccc(-c2ncc(CNC(=O)C3(F)CNC3)c(N3CCC(CN)C3)n2)cc1Cl (stereo not shown) [Compound 102] | 1 to 10 µM | 1 to 10 µM
